Measurements: paper PMC5259791 (Scientific Reports, 2017)

Target: T1, wild-type PPARγ1 (Homo sapiens, UniProt P37231)
T1 construct: expressed in transfected cells; host or cells: HEK293T (transient); vectors from Takuma Shiraki
T1 sequence (P37231 1-477 isoform P37231-2): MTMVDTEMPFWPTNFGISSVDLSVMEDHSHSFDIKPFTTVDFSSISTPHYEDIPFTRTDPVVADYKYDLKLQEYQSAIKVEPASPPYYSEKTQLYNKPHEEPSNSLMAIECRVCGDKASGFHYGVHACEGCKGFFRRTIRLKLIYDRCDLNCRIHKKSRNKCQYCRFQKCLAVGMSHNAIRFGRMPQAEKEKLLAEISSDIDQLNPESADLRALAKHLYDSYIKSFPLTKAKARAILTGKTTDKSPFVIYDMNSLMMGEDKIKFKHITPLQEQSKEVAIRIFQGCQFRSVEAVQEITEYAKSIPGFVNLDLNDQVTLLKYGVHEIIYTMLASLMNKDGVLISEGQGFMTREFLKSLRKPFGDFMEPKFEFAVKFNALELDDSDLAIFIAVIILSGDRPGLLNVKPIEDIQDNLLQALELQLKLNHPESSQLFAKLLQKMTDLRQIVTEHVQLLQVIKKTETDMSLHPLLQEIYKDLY
Experiment: PPRE-luciferase transactivation in HEK293T cells co-transfected with wild-type PPARγ1
Type: cell-based
Conditions: wild type receptor, 24 h
Excerpt: Luciferase activity is reported as fold-induction after normalization to β-galactosidase activity used as control for transfection efficiency. […] (b) Human HEK293T cells were co-transfected with the PPRE-luciferase reporter gene and the wild-type PPARγ1 or its mutant version (C285A). […] Luciferase activity is reported as fold-induction after normalization to β-galactosidase activity used as control for transfection efficiency.
To this goal we transiently transfected basal HEK293T cells with the PPRE-TK-luciferase-reporter plasmid along with the expression vector for the wild-type PPARγ1 or the mutant version carrying the C285A substitution.
HEK293 cells that stably express an exogenous Flag-tagged PPARγ from a transfected PCDNA-3 vector carrying a complete PPARγ cDNA were used for transfection experiments. The PPRE-Luc plasmid contains a luciferase reporter gene under the transcriptional control of three copies of the PPRE (Peroxisome Proliferator Response Element) derived from Acyl-CoA oxidase gene fused upstream to the herpes simplex thymidine kinase (TK) promoter, as described. The RSV-βGal plasmid, expressing β-galactosidase gene, driven by the strong Rous Sarcoma Virus (RSV) promoter/cassette was used as an internal control for transfection efficiency. Transient transfection assays were carried out as described in ref. [44]. […]

Compound: C=C1C(=O)C23CCC4C(C(=O)OC)CC(O)CC4(C)C2CCC1C3 (stereo not shown) [Compound 1, 15-ketoatractyligenin methyl ester]
- luciferase activity less than Rosiglitazone: 40%
